Assay results: patent EP0552418A1, “N-substituted-3-iodopropiolamide, production and use thereof” (TAKEDA CHEMICAL INDUSTRIES, LTD., priority 1992, dated 1993)

Key:
[1] = system: Aspergillus Niger, Penicillium funiculosum, Rhizopus javanicus, Aureobasidium pullulans, Gliocladium virens; assay: Fungicide activity for wood fungicide, sum over the five fungi and damage value; format: cell-based; conditions: for damage value (D = S₁ / S₀ × 100): relative to untreated specimens (100.0), lower = higher activity; for wood fungicide activity: statement in words on Table 3
Experimental: This test was conducted according to Specification No.2 of Japan Wood Preserving Association, enacted in 1979 and titled "Test methods of fungicide activity for wood fungicide".
• ① Aspergillus niger van Tieghem IFO 6341 = ATCC 6275 • ② Penicillium funiculosum Thom (formerly : Penicillium luteum Zukal) IFO 6345 = ATCC 9644 . • ③ Rhizopus javanicus Takeda (formerly : Rhizopus nigricans Ehrenberg S.N. 32) IFO 6354 • ④ Aureobasidium pullulans (de Bary) Arnaud IFO 6353 = IAM (H. Iizuka, F-24) • ⑤ Gliocladium virens Miller, Gidden & Fosteb IFO 6355 = ATCC 9645 (formerly : Trichoderma viride, T.I.)
The average rating (A) was determined for each type of fungi with the following equation: Average rating (A) = (a₁ + a₂ + a₃ + a₄ + a₅ + a₆ ) / 6 [formula] wherein a₁, a₂ ...a₆ : rating for each test specimen.
The damage value was determined with the following equation after determining the sum of average rating by adding each rating of test specimens for each concentration of fungicide solution: S = A₁ + A₂ + A₃ + A₄ + A₅ [formula] wherein A₁, A₂.., A₅: average rating for each type of fungi D = S₁ / S₀ × 100 [formula] wherein S₀ : S for untreated test specimens S₁ : S for specimens treated with certain concentration of fungicide solution
Both lower rating value and lower damage value correspond to higher wood fungicide activity. […]

wood rot fungi = assay: Preserving activity for wood preservatives, overall statement for both wood rot fungi; format: cell-based, Tyromyces palustris, Coriolus versicolor; conditions: statement in words on Table 2
Experimental: This test was conducted according to Specification No. 1 of Japan Wood Preserving Association, enacted in 1979, amended in 1989 and titled "Test methods of preserving activity for wood preservatives used in the coating, spraying and dipping treatment".
• ① Tyromyces palustris (Ber. et Curt.) Murr., FFPRI 0507 --"Ouzuratake" • ② Coriolus versicolor(L. ex Fr.) Quélet, FFPRI 1030 --"Kawaratake" These two fungi are classified as wood rot fungi.
The antimicrobial operation was performed with specifying types of fungi for corresponding type of trees. The combinations were as follows: Cedar----Tyromyces palustris ("Ouzuratake") Beech----Coriolus versicolor ("Kawaratake")
The test results were presented by the ratio of average weight loss of test specimens due to antimicrobial operation. The standard deviation and coefficient of variation were also determined. The ratio of weight loss for each test specimen was calculated by the following equation, and its average was also determined: The ratio of weight loss(%) = (W₃ - W₄ ) / W₃ × 100. Lower value of the ratio of weight loss corresponds to higher wood preserving activity. […]

| SMILES | damage value (D = S₁ / S₀ × 100) ([1]; 0.5% xylene solution) | wood fungicide activity [1] | wood preserving activity (wood rot fungi) | Sum (S = A₁ + A₂ + A₃ + A₄ + A₅) ([1]; 0.5% xylene solution, sum of average ratings of five fungi, untreated 15.0) |
| --- | --- | --- | --- | --- |
| CC(C)(C)NC(=O)C#CI [Example 1, N-(tert-Butyl)-3-iodopropiolamide] | 13.3 | excellent wood fungicide activity | excellent wood preserving activity |  |
| CCCCCCCCCCNC(=O)C#CI [Example 2, N-(n-Decyl)-3-iodopropiolamide] | 62.2 |  | excellent wood preserving activity |  |
| CCCCNC(=O)C#CI [Example 4, N-(n-Butyl)-3-iodopropiolamide] |  | excellent wood fungicide activity | excellent wood preserving activity |  |
| CCC(C)NC(=O)C#CI (stereo not drawn) [Example 5, N-(sec-Butyl)-3-iodopropiolamide] | 28.9 | excellent wood fungicide activity | excellent wood preserving activity |  |
| CC(C)CNC(=O)C#CI [Example 6, N-Isobutyl-3-iodopropiolamide] | 20.2 | excellent wood fungicide activity | excellent wood preserving activity |  |
| CCCCCNC(=O)C#CI [Example 7, N-(n-Pentyl)-3-iodopropiolamide] | 34.4 |  | excellent wood preserving activity |  |
| CCCCCCNC(=O)C#CI [Example 8, N-(n-Hexyl)-3-iodopropiolamide] | 23.3 | excellent wood fungicide activity | excellent wood preserving activity |  |
| CCCCCCCCNC(=O)C#CI [Example 10, N-(n-Octyl)-3-iodopropiolamide] | 54.4 |  |  |  |
| CCCCCCCCCNC(=O)C#CI [Example 11, N-(n-Nonyl)-3-iodopropiolamide] | 82.2 |  |  | 12.3 |
